The source of these data is US9745283B2, “Uracil derivatives as AXL and c-MET kinase inhibitors” (priority 2011, dated 2017).

Test [1] concerns the target recombinant human baculovirus-expressed AXL (Homo sapiens (Human), UniProt P30530). Kind of test: AXL Kinase Assay (HTRF KinEASE). To be noted: average of two or more determinations. Type of test: biochemical. Background: Time-resolved FRET reads energy transfer from a long-lived donor to a nearby acceptor.
Test [2] has as its target recombinant human baculovirus-expressed cMET (Homo sapiens (Human), UniProt P08581). The test is described as follows: C-MET Kinase Assay (HTRF KinEASE). Format: biochemical. To be noted: average of two or more determinations; read-out: c-MET IC50. A digest of the protocol: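 HTRF KinEASE format with recombinant human baculovirus-expressed cMET at 8 ng/mL, biotinylated peptide at 0.1 μM and ATP at 0.02 μM. IC50 came from percent control activity versus log concentration, fitted by nonlinear regression to a variable-slope sigmoidal equation with bottom fixed at 0 and top at 100.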

What is called IC50 is the concentration that inhibits the measured activity by half. As to `COc1cc2nccc(Oc3ccc(NC(=O)c4cn(C(C)C)c(=O)n(-c5ccc(F)cc5)c4=O)cc3)c2cc1OC` [Example 23, 3-(4-Fluorophenyl)-1-isopropyl-2,4-dioxo-1,2,3,4-tetrahydropyrimidine-5-carboxylic acid [4-(6,7-dimethoxyquinolin-4-yloxy)phenyl]-amide], the IC50 in test [1] and in test [2] was < 10 nM each time.

As for `COc1cc2nccc(Oc3ccc(NC(=O)c4c[nH]c(=O)n(-c5ccc(F)cc5)c4=O)cc3)c2cc1OC` [Example 24, 3-(4-Fluorophenyl)-2,4-dioxo-1,2,3,4-tetrahydropyrimidine-5-carboxylic acid [4-(6,7-dimethoxyquinolin-4-yloxy)phenyl]-amide], the IC50 in test [1] and in test [2] was < 10 nM throughout.

Consider `CCn1cc(C(=O)Nc2ccc(Oc3ccnc4cc(OC)c(OC)cc34)cc2OC)c(=O)n(-c2ccc(F)cc2)c1=O` [Example 143, 1-Ethyl-3-(4-fluorophenyl)-2,4-dioxo-1,2,3,4-tetrahydropyrimidine-5-carboxylic acid [4-(6,7-dimethoxy-quinolin-4-yloxy)-2-methoxyphenyl]-amide], for which the 50% inhibitory concentration (IC50) in test [1] and in test [2] was < 10 nM throughout.

Take `COc1ccc2c(Oc3ccc(NC(=O)c4nn(C(C)C)c(=O)n(-c5ccc(F)cc5)c4=O)cc3F)ccnc2c1` [Example 111, 4-(4-Fluorophenyl)-2-isopropyl-3,5-dioxo-2,3,4,5-tetrahydro-[1,2,4]triazine-6-carboxylic acid [3-fluoro-4-(7-methoxyquinolin-4-yloxy)-phenyl]-amide]: the half-inhibitory concentration (IC50) in test [1] was < 10 nM; in test [2], 10 to 100 nM.

With `CCn1nc(C(=O)Nc2ccc(Oc3ccnc4cc(OC)c(OC)cc34)c(F)c2)c(=O)n(-c2ccc(F)cc2)c1=O` [Example 105, 2-Ethyl-4-(4-fluoro-phenyl)-3,5-dioxo-2,3,4,5-tetrahydro-[1,2,4]triazine-6-carboxylic acid [4-(6,7-dimethoxy-quinolin-4-yloxy)-3-fluoro-phenyl]-amide], the values for the half-inhibitory concentration (IC50) in test [1] and in test [2] were < 10 nM and 10 to 100 nM, respectively.

For the compound `CCCn1cc(C(=O)Nc2ccc(C(=O)c3ccnc4cc(OC)c(OC)cc34)c(F)c2)c(=O)n(-c2ccc(F)cc2)c1=O` [Example 102, 3-(4-Fluoro-phenyl)-2,4-dioxo-1-propyl-1,2,3,4-tetrahydro-pyrimidine-5-carboxylic acid [4-(6,7-dimethoxy-quinoline-4-carbonyl)-3-fluoro-phenyl]-amide], the half-inhibitory concentration (IC50) in test [1] and in test [2] was < 10 nM each time.

With `COc1cc2nccc(Oc3ccc(NC(=O)c4n[nH]c(=O)n(-c5ccc(F)cc5)c4=O)cc3F)c2cc1OC` [Example 107, 4-(4-Fluoro-phenyl)-3,5-dioxo-2,3,4,5-tetrahydro-[1,2,4]triazine-6-carboxylic acid [4-(6,7-dimethoxy-quinolin-4-yloxy)-3-fluoro-phenyl]-amide], the IC50 in test [1] and in test [2] was < 10 nM throughout.

Turning to `CCn1cc(C(=O)Nc2ccc(Oc3ccnc4cc(OC)c(OC)cc34)c(F)c2)c(=O)n(-c2ccccc2)c1=O` [Example 100, 1-Ethyl-2,4-dioxo-3-phenyl-1,2,3,4-tetrahydro-pyrimidine-5-carboxylic acid [4-(6,7-dimethoxy-quinolin-4-yloxy)-3-fluoro-phenyl]-amide], the IC50 in test [1] is < 10 nM; in test [2] it was 10 to 100 nM.

`CCn1cc(C(=O)Nc2ccc(Oc3ccnc4cc(OC)c(OC)cc34)c(F)c2)c(=O)n(-c2ccc(F)cc2)c1=O` [Example 1, 1-Ethyl-3-(4-fluorophenyl)-2,4-dioxo-1,2,3,4-tetrahydropyrimidine-5-carboxylicacid [4-(6,7-dimethoxyquinolin-4-yloxy)-3-fluorophenyl]amide]: the IC50 in test [1] and in test [2] was < 10 nM each time.

In the case of `COc1cc2nccc(Oc3ccc(NC(=O)c4cn(CCc5ccc(F)cc5)c(=O)n(-c5ccc(F)cc5)c4=O)cc3F)c2cc1OC` [Example 79, 3-(4-Fluoro-phenyl)-1-[2-(4-fluoro-phenyl)-ethyl]-2,4-dioxo-1,2,3,4-tetrahydro-pyrimidine-5-carboxylic acid [4-(6,7-dimethoxy-quinolin-4-yloxy)-3-fluoro-phenyl]-amide], the half-maximal inhibitory concentration (IC50) in test [1] is < 10 nM; in test [2], 10 to 100 nM.

Take `COc1cc2nccc(Oc3ccc(NC(=O)c4nn(C)c(=O)n(CC(C)C)c4=O)cc3F)c2cc1OC` [Example 127, 4-Isobutyl-2-methyl-3,5-dioxo-2,3,4,5-tetrahydro-[1,2,4]triazine-6-carboxylic acid [4-(6,7-dimethoxy-quinolin-4-yloxy)-3-fluoro-phenyl]-amide]: the results for the concentration for half-maximal inhibition (IC50) in test [1] and in test [2] were < 10 nM and 10 to 100 nM, respectively.

Consider `COc1cc2nccc(Oc3ccc(NC(=O)c4cn(CCN5CCOCC5)c(=O)n(-c5ccc(F)cc5)c4=O)cc3F)c2cc1OC` [Example 16, 3-(4-Fluorophenyl)-1-(2-morpholin-4-yl-ethyl)-2,4-dioxo-1,2,3,4-tetrahydropyrimidine-5-carboxylic acid [4-(6,7-dimethoxyquinolin-4-yloxy)-3-fluorophenyl]-amide], for which the IC50 in test [1] and in test [2] was < 10 nM each time.

Turning to `CCn1c(=O)c(C(=O)Nc2ccc(Oc3ccnc4cc(OC)c(OC)cc34)c(F)c2)cn(-c2ccc(F)cc2)c1=O` [Example 91, 3-Ethyl-1-(4-fluoro-phenyl)-2,4-dioxo-1,2,3,4-tetrahydro-pyrimidine-5-carboxylic acid [4-(6,7-dimethoxy-quinolin-4-yloxy)-3-fluoro-phenyl]-amide], the values for the 50% inhibitory concentration (IC50) in test [1] and in test [2] were < 10 nM and 10 to 100 nM, respectively.

With `Cn1cc(C(=O)Nc2ccc(Oc3ccnc4cc5c(cc34)OCO5)c(F)c2)c(=O)n(-c2ccc(F)cc2)c1=O` [Example 131, 3-(4-Fluoro-phenyl)-1-methyl-2,4-dioxo-1,2,3,4-tetrahydro-pyrimidine-5-carboxylic acid [4-([1,3]dioxolo[4,5-g]quinolin-8-yloxy)-3-fluoro-phenyl]-amide], the half-inhibitory concentration (IC50) in test [1] is < 10 nM; in test [2] it was 10 to 100 nM.

In the case of `COc1cc2nccc(Oc3ccc(NC(=O)c4cn(CCc5ccccc5F)c(=O)n(-c5ccc(F)cc5)c4=O)cc3F)c2cc1OC` [Example 78, 3-(4-Fluoro-phenyl)-1-[2-(2-fluoro-phenyl)-ethyl]-2,4-dioxo-1,2,3,4-tetrahydro-pyrimidine-5-carboxylic acid [4-(6,7-dimethoxy-quinolin-4-yloxy)-3-fluoro-phenyl]-amide], the half-inhibitory concentration (IC50) in test [1] was < 10 nM; in test [2], 10 to 100 nM.

As to `COc1cc2nccc(Oc3ccc(NC(=O)c4cn(C5CCOCC5)c(=O)n(-c5ccc(F)cc5)c4=O)cc3F)c2cc1OC` [Example 30, 3-(4-Fluorophenyl)-2,4-dioxo-1-(tetrahydropyran-4-yl)-1,2,3,4-tetrahydropyrimidine-5-carboxylic acid [4-(6,7-dimethoxyquinolin-4-yloxy)-3-fluorophenyl]-amide], the IC50 was < 10 nM in test [1] and 10 to 100 nM in test [2].

On to `COc1cc2nccc(Oc3ccc(NC(=O)c4cn(C(C)C)c(=O)n(-c5ccccc5)c4=O)cc3F)c2cc1OC` [Example 101, 1-Isopropyl-2,4-dioxo-3-phenyl-1,2,3,4-tetrahydro-pyrimidine-5-carboxylic acid [4-(6,7-dimethoxy-quinolin-4-yloxy)-3-fluoro-phenyl]-amide], for which the half-maximal inhibitory concentration (IC50) in test [1] is < 10 nM; in test [2] it was 10 to 100 nM.

For `CCN(CC)C(=O)Cn1cc(C(=O)Nc2ccc(Oc3ccnc4cc(OC)c(OC)cc34)c(F)c2)c(=O)n(-c2ccc(F)cc2)c1=O` [Example 66, 1-Diethylcarbamoylmethyl-3-(4-fluoro-phenyl)-2,4-dioxo-1,2,3,4-tetrahydro-pyrimidine-5-carboxylic acid [4-(6,7-dimethoxy-quinolin-4-yloxy)-3-fluoro-phenyl]-amide], the IC50 in test [1] and in test [2] was < 10 nM each time.

For `COc1cc2nccc(Oc3ccc(NC(=O)c4cn(CCN5CCCC5)c(=O)n(-c5ccc(F)cc5)c4=O)cc3F)c2cc1OC` [Example 26, 3-(4-Fluorophenyl)-2,4-dioxo-1-(2-pyrrolidin-1-yl-ethyl)-1,2,3,4-tetrahydropyrimidine-5-carboxylic acid [4-(6,7-dimethoxyquinolin-4-yloxy)-3-fluorophenyl]-amide], the IC50 was < 10 nM in test [1] and 10 to 100 nM in test [2].

Regarding `COc1cc2nccc(Cc3ccc(NC(=O)c4cn(C)c(=O)n(-c5ccc(F)cc5)c4=O)cc3F)c2cc1OC` [Example 58, 3-(4-fluoro-phenyl)-1-methyl-2,4-dioxo-1,2,3,4-tetrahydro-pyrimidine-5-carboxylic acid [4-(6,7-dimethoxy-quinolin-4-ylmethyl)-3-fluoro-phenyl]-amide], the half-inhibitory concentration (IC50) is < 10 nM in test [1] and 10 to 100 nM in test [2].

For `COc1cc2nccc(Oc3ccc(NC(=O)c4cn(CC=C(F)F)c(=O)n(-c5ccc(F)cc5)c4=O)cc3F)c2cc1OC` [Example 14, 1-(3,3-Difluoro-allyl)-3-(4-fluorophenyl)-2,4-dioxo-1,2,3,4-tetrahydropyrimidine-5-carboxylic acid [4-(6,7-dimethoxyquinolin-4-yloxy)-3-fluorophenyl]-amide], the half-inhibitory concentration (IC50) in test [1] and in test [2] was < 10 nM in each case.

`COc1cc2nccc(Oc3ccc(NC(=O)c4cn(CC(=O)O)c(=O)n(-c5ccc(F)cc5)c4=O)cc3F)c2cc1OC` [Example 71, [5-[4-(6,7-Dimethoxyquinolin-4-yloxy)-3-fluorophenylcarbamoyl]-3-(4-fluorophenyl)-2,4-dioxo-3,4-dihydro-2H-pyrimidin-1-yl]-acetic acid]: the IC50 in test [1] and in test [2] was < 10 nM throughout.

For `COc1cc2nccc(Oc3ccc(NC(=O)c4nn(C)c(=O)n(CC5CCC5)c4=O)cc3F)c2cc1OC` [Example 128, 4-Cyclobutylmethyl-2-methyl-3,5-dioxo-2,3,4,5-tetrahydro-[1,2,4]triazine-6-carboxylic acid [4-(6,7-dimethoxy-quinolin-4-yloxy)-3-fluoro-phenyl]-amide], the IC50 in test [1] was < 10 nM; in test [2], 10 to 100 nM.
